From patent US9738684B2, “N-terminally modified linear and branched polyamine conjugated peptidomimetics as antimicrobials agents” (COUNCIL OF SCIENTIFIC & INDUSTRIAL RESEARCH, priority 2015, dated 2017)
≈ marks a conversion by molar mass, not a printed value.

Key:
[1] = tested on: Enterococcus faecalis (ATCC 7080); experiment: MIC, serial broth dilution; type: cell-based; settings: MHB, 18 h, 37° C.
Procedure: (§1) The peptidomimetics designed in present invention were evaluated as antibacterial therapeutics against a broad range of bacterial strains by broth microdilution method. The antibacterial activity of the peptidomimetics was reported in terms of the minimum inhibitory concentrations (MIC).
(§2) Following bacterial strains were used in this study: S. aureus (ATCC 29213), methicillin resistant S. aureus (ATCC 33591), Staphylococcus epidermidis (ATCC 12228), methicillin resistant Staphylococcus epidermidis(ATCC 51625), Enterococcus faecalis (ATCC 7080), Escherichia coli (ATCC 11775), and Acinetobacter baumannii (ATCC 19606). Antibacterial activity was evaluated using a modified serial broth dilution method in accordance with Clinical Laboratory Standard Institute guidelines [Methods for dilution antimicrobial susceptibility tests for bacteria that grow aerobically-7th ed. Approved standard M7-A7. Clinical and Laboratory Standards Institute, Wayne, Pa., Biochim. Biophys. Acta 1798:1864-1875, 2010.]. Briefly, the inoculums were prepared from mid-log phase bacterial cultures. Peptidomimetics were incubated with bacterial suspension in Muller Hinton broth media (10^5 CFU/mL) in 96 well microtitre plate. The plates were incubated overnight with agitation (200 rpm) at 37° C. After 18 h, absorbance was measured at 630 nm. Cultures without test peptidomimetics were used as positive control. Un-inoculated Mueller Hinton Broth (MHB) was used as negative control. Tests were carried out in duplicate on at least three different days. […] For comparison standard peptide antibiotics vancomycin (VAN) and polymyxin B (PMB) were also assayed under identical conditions (Table 2). […] Further, antibacterial activity of active peptidomimetics 1c and 1d were also evaluated against MRSA in presence of 25% v/v human serum as well as bovine serum.

[2] = tested on: Acinetobacter baumannii (ATCC 19606); experiment: MIC, serial broth dilution; type: cell-based; settings: MHB, 18 h, 37° C.
Procedure: as §1, §2

[3] = tested on: methicillin resistant Staphylococcus epidermidis (ATCC 51625); experiment: MIC, serial broth dilution; type: cell-based; settings: MHB, 18 h, 37° C.
Procedure: as §1, §2

[4] = tested on: Staphylococcus epidermidis (ATCC 12228); experiment: MIC, serial broth dilution; type: cell-based; settings: MHB, 18 h, 37° C.
Procedure: as §1, §2

[5] = tested on: human red blood cells (hRBC); experiment: Hemolytic activity; type: cell-based; settings: 250 μg/mL, 1 h at 37° C.
Procedure: Hemolytic activity of the peptidomimetics was evaluated on human red blood cells (hRBC) as described previously with minor modifications [FEBS J, 273:4040-4054, 2006; Biochim Biophys Acta., 1798:1864-1875, 2010]. Briefly, 100 μL of fresh hRBC suspension 4% v/v in NaCl/Pi (35 mM phosphate buffer, 150 mM NaCl, pH 7.2) was placed in a 96-well plate. After incubation of the peptidomimetics (100 μL) in the hRBC suspension for 1 h at 37° C., the plates were centrifuged and supernatant (100 μL) was transferred to fresh 96-well plate. Absorbance was read at 540 nm using ELISA plate reader (Molecular Devices). Percent hemolysis was calculated using the following formula: % hemolysis=100[(A−A0)/(At−A0)]
Where, A represents absorbance of sample wells at 540 nm. Also A0 and At represents 0% and 100% hemolysis determined in NaCl/Pi and 1% Triton X-100, respectively (Table 2). […] Peptidomimetics 1e and 1f caused 31% and 30% hemolysis at 250 μg/mL. Peptidomimetics 2d, 2e and 2f caused significant hemolysis with 83%, 96% and 88% damage to hRBCs at […] respectively.

[6] = tested on: MRSA; experiment: MIC in presence of 25% v/v human serum; type: cell-based, Staphylococcus aureus
Procedure: Following bacterial strains were used in this study: S. aureus (ATCC 29213), methicillin resistant S. aureus (ATCC 33591), Staphylococcus epidermidis (ATCC 12228), methicillin resistant Staphylococcus epidermidis(ATCC 51625), Enterococcus faecalis (ATCC 7080), Escherichia coli (ATCC 11775), and Acinetobacter baumannii (ATCC 19606). Antibacterial activity was evaluated using a modified serial broth dilution method in accordance with Clinical Laboratory Standard Institute guidelines [Methods for dilution antimicrobial susceptibility tests for bacteria that grow aerobically-7th ed. Approved standard M7-A7. Clinical and Laboratory Standards Institute, Wayne, Pa., Biochim. Biophys. Acta 1798:1864-1875, 2010.]. Briefly, the inoculums were prepared from mid-log phase bacterial cultures. Peptidomimetics were incubated with bacterial suspension in Muller Hinton broth media (10^5 CFU/mL) in 96 well microtitre plate. The plates were incubated overnight with agitation (200 rpm) at 37° C. After 18 h, absorbance was measured at 630 nm. Cultures without test peptidomimetics were used as positive control. Un-inoculated Mueller Hinton Broth (MHB) was used as negative control. Tests were carried out in duplicate on at least three different days. […] Further, antibacterial activity of active peptidomimetics 1c and 1d were also evaluated against MRSA in presence of 25% v/v human serum as well as bovine serum.

[7] = tested on: MRSA (ATCC 33591) biofilm; experiment: Confocal laser scanning microscopy of biofilm, thickness by z-stacking; type: cell-based, Staphylococcus aureus; settings: for thickness of mature biofilm after treatment: 10×MICb, untreated 23.6±2.5 μm; for thickness of mature biofilm after treatment / confocal observation of mature biofilm: 24 h preformed biofilm; for confocal observation of mature biofilm: 20×MICb; for average thickness of biofilm, biofilm formation: MICb; for average thickness of biofilm, biofilm formation / thickness of biofilm, biofilm formation: control 14.3±1.4 μm; for thickness of biofilm, biofilm formation: sub-MICb
From the text: For visualization of biofilm and validation of AB and CV assay we performed confocal microscopy. For this biofilm formation was induced on glass cover slips in a 6-well plate. The biofilm on cover slips were washed twice with sterile NaCl/Pi buffer and stained with a Live/Dead kit reagent (Invitrogen, Molecular Probes, Eugene, Oreg., USA) following the manufacturer's instructions. This stain contains DNA binding dyes SYTO 9 (green fluorescent) and propidium iodide (PI; red fluorescent). When used alone, SYTO 9 stains all bacteria in a population, those with intact as well as damaged membranes. In contrast, PI penetrates only bacteria with damaged membranes, causing a reduction in the SYTO 9 stain (green fluorescence). The biofilms were examined with an Olympus flow view FV1000 (confocal laser scanning microscope, CLSM). The experiment was repeated three times on three different days and representative data is presented here.
We next measured the thickness of biofilm using z-stacking in confocal microscopy. […] At MICb, 1c and 1d prevented formation of biofilm in which very few cells were adhered to substratum with observed average thickness of 3.9±1.1 μm and 3.5±0.6 μm, respectively. Furthermore, at sub-MICb concentration the observed thicknesses were 5.2±0.3 μm and 5.8±0.4 μm (FIG. 7A.b and FIG. 7A.d).

[8] = tested on: MRSA (ATCC 33591); experiment: Planktonic MIC in biofilm media (MICb); type: cell-based, Staphylococcus aureus; settings: TSB with 0.5% NaCl and 0.25% glucose
[9] = tested on: MRSA; experiment: Membrane depolarization with DiSC3(5) dye; type: cell-based, Staphylococcus aureus; settings: up to the highest concentration tested
Procedure: For determination of membrane depolarizing ability of designed peptidomimetics, a membrane potential sensitive dye DiSC3(5) was used as described previously with minor modifications [Org Biomol. Chem. 10: 8326-8335, 2012; J. Am. Chem. Soc., 132: 18417-18428, 2010.]. Briefly, overnight grown MRSA was sub cultured into MHB for 2-3 h at 37° C. to obtain mid-log phase cultures. The cells were centrifuged at 4000 rpm for 10 min at 25° C., washed, and re-suspended into respiration buffer (5 mM HEPES, 20 mM glucose, pH 7.4) to obtain a diluted suspension of OD600˜0.05. Then DiSC3(5) [0.18 μM in DMSO], was added to 500 μL aliquotes of the re-suspended cells and allowed to stabilize for 1 h. Baseline fluorescence was acquired using a Edinburg F900 spectrofluorometer by excitation at 622 nm and emission at 670 nm in a 1 cm path length cuvette. Bandwidth of 5 nm was employed for excitation and emission. Subsequently, increasing concentrations of test peptidomimetics were added to the stabilized cells and the increase of fluorescence on account of the de-quenching of DiSC3(5) dye was measured after every 2 min to obtain the maximal depolarization. Increase in relative fluorescence unit (RFU) was plotted against increasing concentrations of different peptidomimetics or PMB. […] The increase in fluorescence for lipid tagged peptidomimetics was concentration dependent up to 9.9 μg/mL and henceforth, got saturated resulting into plateau like dose response curves. The experiment was repeated twice on two consecutive days and produced similar results.

Structure (SMILES) | MIC E. facaelis (ATCC 7080) [1] [µg/L] | MIC A. baumannii (ATCC 19606) [2] [µg/L] | MIC MRSE (ATCC 51625) [3] [µg/L] | MIC S. epidermidis (ATCC 12228) [4] [µg/mL] | % H, percentage hemolysis of human RBCs [5] [%] | increase in MIC in human serum [6] [fold] | thickness of mature biofilm after treatment [7] [μm] | confocal observation of mature biofilm [7] | average thickness of biofilm, biofilm formation [7] [μm] | thickness of biofilm, biofilm formation [7] [μm] | MICb, planktonic MIC in biofilm media [8] [µg/mL] | change in relative fluorescence unit (RFU), membrane depolarization [9]
NCCCNCCCCNCCCNC(=O)C(Cc1c[nH]c2ccccc12)NC(=O)C(Cc1c[nH]c2ccccc12)NC(=O)Cc1ccc(C(F)(F)F)cc1 (stereo not drawn) [1c] | 28.4 (≈ 0.0373 µM) | 28.4 (≈ 0.0373 µM) | 3.5 (≈ 0.0046 µM) | 1.7 (≈ 2.23 µM) | 2 | 4 | 7.1±1.5 | most of the cells lost their integrity | 3.9±1.1 | 5.2±0.3 | 7.1 | only marginal changes in RFU
CCCCCCCCCC(=O)NC(Cc1c[nH]c2ccccc12)C(=O)NC(Cc1c[nH]c2ccccc12)C(=O)NCCCNCCCCNCCCN (stereo not drawn) [1d] | 3.5 (≈ 0.0048 µM) | 113.6 (≈ 0.156 µM) | 1.7 (≈ 0.00233 µM) | 1.7 (≈ 2.33 µM) | 9 | 8 | 7.0±1.0 | most of the cells lost their integrity | 3.5±0.6 | 5.8±0.4 | 3.5 | intermediate changes in fluorescence intensity
